Reference: ChEMBL document CHEMBL6074649, “An insight into recent developments in imidazole based heterocyclic compounds as anticancer agents: Synthesis, SARs, and mechanism of actions” (Eur J Med Chem, 2024)
Converted amounts (≈) assume the structure as drawn.

Key:
[1] = tested on: Leukemia cell; assay: Growth inhibition of human Leukemia cell; format: functional
[2] = tested on: HeLa; assay: Antiproliferative activity against human HeLa cells assessed as reduction in cell growth incubated for 48 hrs by MTT assay; format: functional, cell-based
[3] = tested on: COLO 205; assay: Cytotoxicity against human COLO 205 cells assessed as reduction in cell viability by MTT assay; format: functional, cell-based
[4] = tested on: K562; assay: Antiproliferative activity against human K562 cells assessed as reduction in cell growth incubated for 48 hrs by MTT assay; format: functional, cell-based; details: K562, 48 h
[5] = tested on: MCF7; assay: Cytotoxicity against human MCF7 cells assessed as reduction in cell viability by MTT assay; format: functional, cell-based
[6] = tested on: A2780; assay: Cytotoxicity against human A2780 cells assessed as reduction in cell viability by MTT assay; format: functional, cell-based
[7] = Antiproliferative activity against human MCF-10A cells assessed as reduction in cell growth by MTT assay; format: toxicity, cell-based
[8] = tested on: MDA-MB-231; assay: Antiproliferative activity against human MDA-MB-231 cells assessed as reduction in cell growth by MTT assay; format: functional, cell-based
[9] = Antiproliferative activity against human HepG2 cells assessed as reduction in cell growth by MTT assay; format: toxicity, cell-based
[10] = tested on: L02; assay: Antiproliferative activity against human LO2 cells assessed as reduction in cell growth by MTT assay; format: functional, cell-based
[11] = tested on: A549; assay: Cytotoxicity against human A549 cells assessed as reduction in cell viability by MTT assay; format: functional, cell-based
[12] = tested on: MCF7; assay: Cytotoxicity against human MCF7 cells assessed as reduction in cell growth incubated for 24 hrs by SRB assay; format: functional, cell-based; details: MCF7, 24 h
[13] = tested on: HepG2; assay: Cytotoxicity against human HepG2 cells assessed as reduction in cell growth incubated for 24 hrs by SRB assay; format: functional, cell-based; details: HepG2, 24 h
[14] = tested on: IMR-32; assay: Anticancer activity against human IMR-32 cells assessed as reduction in cell viability incubated for 48 hrs by MTT assay; format: functional, cell-based; details: IMR-32, 48 h
[15] = Anticancer activity against HEK293 cells assessed as reduction in cell viability incubated for 48 hrs by MTT assay; format: toxicity, cell-based; details: human
[16] = tested on: A549; assay: Anticancer activity against human A549 cells assessed as reduction in cell viability incubated for 48 hrs by MTT assay; format: functional, cell-based; details: A549, 48 h
[17] = tested on: HeLa; assay: Anticancer activity against human HeLa cells assessed as reduction in cell viability incubated for 48 hrs by MTT assay; format: functional, cell-based
[18] = Antiproliferative activity against human MCF7/MX cells assessed as reduction in cell growth incubated for 24 hrs by MTT assay; format: functional, cell-based
[19] = tested on: MCF7; assay: Antiproliferative activity against human MCF7 cells assessed as reduction in cell growth incubated for 24 hrs by MTT assay; format: functional, cell-based; details: MCF7, 24 h
[20] = tested on: A549; assay: Antiproliferative activity against human A549 cells assessed as reduction in cell growth incubated for 24 hrs by MTT assay; format: functional, cell-based; details: A549, 24 h
[21] = tested on: HepG2; assay: Antiproliferative activity against human HepG2 cells assessed as reduction in cell growth incubated for 24 hrs by MTT assay; format: functional, cell-based; details: HepG2, 24 h
[22] = tested on: A549; assay: Antiproliferative activity against human A549 cells assessed as reduction in cell viability incubated for 24 hrs by MTT assay; format: functional, cell-based; details: A549, 24 h
[23] = Antiproliferative activity against human MRC5 cells assessed as reduction in cell viability incubated for 24 hrs by MTT assay; format: toxicity, cell-based
[24] = tested on: AGS; assay: Antiproliferative activity against human AGS cells assessed as reduction in cell viability incubated for 24 hrs by MTT assay; format: functional, cell-based
[25] = tested on: HepG2; assay: Antiproliferative activity against human HepG2 cells assessed as reduction in cell viability incubated for 48 hrs by CCK-8 assay; format: functional, cell-based; details: HepG2, 48 h
[26] = tested on: A549; assay: Antiproliferative activity against human A549 cells assessed as reduction in cell viability incubated for 48 hrs by CCK-8 assay; format: functional, cell-based; details: A549, 48 h
[27] = tested on: U-251; assay: Antiproliferative activity against human U-251 cells assessed as reduction in cell viability incubated for 48 hrs by CCK-8 assay; format: functional, cell-based; details: U-251, 48 h
[28] = Growth inhibition of human Melanoma cell; format: functional
[29] = Growth inhibition of human Colon cancer cell line; format: functional
[30] = tested on: CNS carcinoma cell; assay: Growth inhibition of human CNS carcinoma cell; format: functional
[31] = Growth inhibition of human Non-small cell lung cancer cell line; format: functional

## Cc1nc(SCC(=O)Nc2nc(-c3ccc(Cl)cc3)cs2)n(Nc2ccccc2)c1C
[1]
  GI50: 3.08 µM

## COc1cc([C@@H]2c3cc4c(cc3[C@@H](O[C@@H]3O[C@@H]5CO[C@@H](C)O[C@H]5[C@H](O)[C@H]3O)[C@H]3COC(=O)[C@H]23)OCO4)cc(OC)c1O [ETOPOSIDE]
[2]
  IC50: 2.99 µM
[3]
  IC50: 0.13 µM
[4]
  IC50: 6 µM
[5]
  IC50: 2.11 µM
[6]
  IC50: 1.31 µM

## Brc1ccc(-c2nc(-c3ccccc3)c(-c3ccccc3)[nH]2)cn1
[7]
  IC50: 36.8 µM
[8]
  IC50: 17.8 µM
[9]
  IC50: 26.7 µM
[10]
  IC50: 22 µM

## O=[N+]([O-])c1cccc(S(=O)(=O)n2ccnc2-c2ccon2)c1
[3]
  IC50: 1.9 µM
[11]
  IC50: 1.14 µM
[5]
  IC50: 1.03 µM
[6]
  IC50: 0.63 µM

## Cc1nc(S)n(-c2ccccc2)c1-c1cc(-c2ccccc2O)c(C#N)c(=O)[nH]1
[12]
  IC50: 2 µg/mL (≈ 4.99 µM)
[13]
  IC50: 3 µg/mL (≈ 7.49 µM)

## COc1cc([C@@H]2c3cc4c(cc3[C@@H](n3cnc([N+](=O)[O-])c3)[C@H]3COC(=O)[C@H]23)OCO4)cc(OC)c1O
[4]
  IC50: 7.43 µM

## O=c1c(-c2nc(-c3ccc(Br)cc3)c(-c3ccc(Br)cc3)[nH]2)coc2ccccc12
[14]
  IC50: 29.4 µM
[15]
  IC50 at 48 h: 82.3 µM
[16]
  IC50: 27.1 µM
[17]
  IC50: 24.7 µM

## CCSc1nc(/C=C/C(=O)c2cc(OC)c(OC)c(OC)c2)cn1Cc1ccccc1
[18]
  IC50: 20.2 µM
[19]
  IC50: 9.88 µM
[20]
  IC50: 7.05 µM
[21]
  IC50: 22 µM

## Cc1nc(S)n(-c2ccccc2)c1-c1cc(-c2ccc(-c3cc(-c4c(C)nc(S)n4-c4ccccc4)nc(N)c3C#N)cc2)c(C#N)c(N)n1
[12]
  IC50: 1.7 µg/mL (≈ 2.47 µM)
[13]
  IC50: 6 µg/mL (≈ 8.71 µM)

## COc1cc(OC)c(S(=O)(=O)n2ccnc2-c2ccon2)c(OC)c1
[3]
  IC50: 0.26 µM
[11]
  IC50: 0.29 µM
[5]
  IC50: 0.41 µM
[6]
  IC50: 1.22 µM

## COc1ccc(C(=O)/C=C/c2nc3ccccc3n2C)cc1
[22]
  IC50: 68.1 µM
[23]
  IC50 at 24 h: 45.9 µM
[24]
  IC50: 15.1 µM

## c1ccc(-c2nc(-c3c[nH]c4ccccc34)[nH]c2-c2ccccc2)cc1
[7]
  IC50: 31.8 µM
[8]
  IC50: 31.4 µM
[9]
  IC50: 29.3 µM
[10]
  IC50: 34.7 µM

## COc1cc([C@@H]2c3cc4c(cc3[C@@H](n3ccnc3)[C@H]3COC(=O)[C@H]23)OCO4)cc(OC)c1OC
[2]
  IC50: 5.22 µM
[4]
  IC50: 2.88 µM

## COc1cc([C@@H]2c3cc4c(cc3[C@H](n3cnc(C)c3)[C@H]3COC(=O)[C@H]23)OCO4)cc(OC)c1OC
[2]
  IC50: 4.48 µM
[4]
  IC50: 8.8 µM

## Brc1ccc(-c2nc(-c3c[nH]c4ccccc34)[nH]c2-c2ccc(Br)cc2)cc1
[14]
  IC50: 10.5 µM
[15]
  IC50 at 48 h: 98.5 µM
[16]
  IC50: 9.52 µM
[17]
  IC50: 11.2 µM

## CN(C)c1ccc(/C=C/c2ncc([N+](=O)[O-])n2CCOC(=O)c2nccc3ccccc23)cc1
[25]
  IC50: 0.17 µM
[26]
  IC50: 0.43 µM
[27]
  IC50: 0.14 µM

## COc1ccc(Nn2c(SCC(=O)Nc3nc(-c4ccc(Cl)cc4)cs3)nc(C)c2C)cc1
[1]
  GI50: 4.15 µM

## Oc1ccc(/C=C/c2cc(O)cc(O)c2)cc1 [RESVERATROL]
[1]
  GI50: 15.9 µM
[28]
  GI50: 64.6 µM
[29]
  GI50: 56 µM
[30]
  GI50: 70.8 µM
[31]
  GI50: 61.7 µM
